| SMILES | melting point [°C] |
| --- | --- |
| Cc1ccc(S(=O)(=O)NS(=O)(=O)N2CCC(N3CCC(Oc4ccc(Cl)c(Cl)c4)CC3)CC2)cc1.[Na] | 242 to 243 |
| O=C(NC(=O)N1CCC(N2CCC(Oc3ccc(Cl)c(Cl)c3)CC2)CC1)c1ccccc1 [Example 7A, N-Benzoyl-4-(3,4-dichlorophenoxy)-[1,4′-bipiperidine]-1′-carboxamide] | 65 to 80 |
| O=C(NS(=O)(=O)N1CCC(N2CCC(Oc3ccc(Cl)c(Cl)c3)CC2)CC1)c1c[nH]c(=O)c2ccccc12 [Example 11A, 4-(3,4-Dichlorophenoxy)-N-[(1,2-dihydro-1-oxo-4-isoquinolinyl)carbonyl]-[1,4′-bipiperidine]-1′-sulfonamide] | 200 |

Now from value to compound:

| melting point [°C] | SMILES |
| --- | --- |
| 223 | Cc1c(Cl)ccc(OC2CCN(C3CCN(S(=O)(=O)NC(=O)c4ccccc4)CC3)CC2)c1Cl [Example 5A, N-Benzoyl-4-(2,4-dichloro-3-methylphenoxy)-[1,4′-bipiperidine)-1′-sulfonamide] |
| 166 to 167 | O=C(NS(=O)(=O)N1CCC(N2CCC(Oc3ccc(Cl)c(Cl)c3)CC2)CC1)c1ccc(Cl)c(Cl)c1 [Example 8A, N-(3,4-Dichlorobenzoyl)-4-(3,4-dichlorophenoxy)-(1,4′-bipiperidine]-1′-sulfonamide] |
